These results are taken from patent US10781182B2, “Compounds, process for obtaining the compounds, pharmaceutical composition, use of the compounds and method for treating psychiatric disorders and/or sleep disorders” (ACHÉ LABORATÓRIOS FARMACÊUTICOS S.A., priority 2016, dated 2020).

Series [1] can be described thus: Permeability in Caco-2 cells. In kind it is in vitro ADME. The conditions noted are these: human, Caco-2, pH 6.5, 37° C. The protocol: Permeability tests were performed using Caco-2 cells, a colorectal epithelial adenocarcinoma cell line. These cells resemble intestinal epithelial cells in some aspects, such as the formation of a polarized monolayer, a well-defined brush border on the apical surface, and intercellular junctions.
The test is performed in both directions [apical to basolateral (A-B) and basolateral to apical (B-A)] through the cell monolayer, allowing an efflux ratio that provides an indicator as to whether a compound undergoes active efflux. Particle detection was performed with HPLC-MS/MS (mass spectrometry) according to the calculation of the peak area of the result. MS/MS was performed by combining two mass detectors in a single instrument.
A-B permeability was performed at pH 6.5/7.4 with incubation time of 0 and 60 minutes at 37° C. and B-A permeability was performed at pH 6.5/7.4 with incubation time of 0 and 40 minutes at 37° C.

A short description of series [2]: Pharmacokinetics (PK) in rat, I.V. and oral. In kind it is in vivo, Wistar-Han rats. The procedure:
[…] The study lasted for 2 weeks (including acclimation time and study), in which the route of administration was made by injection into the caudal vein and oral gavage. The treatment was carried out in a single dose: I.V. group with dose of 1 mg/kg and Oral group with dose of 10 mg/kg. […] Clinical observations were made twice a day (morning and afternoon) in the pre-dose at the 08 time points defined in the protocol. Blood collection was performed after euthanasia in the pre-dose animals at 08 defined time points and at 24 hours post-dose. The pharmacokinetic analysis parameters detected for Group IV were: half-life (t½), drug concentration at time zero (C0), last measurable plasma concentration (AUClast), area under the plasma concentration curve extrapolation percentage (AUC % ext), area under the plasma concentration curve extrapolation to infinity (AUCinf), volume of distribution (Vz), steady state volume of distribution (Vss), clearance (CL) and mean residence time (MRT). The parameters evaluated for the Oral group were: bioavailability (F %), maximum concentration reached (Cmax), time to reach maximum plasma concentration (Tmax), last measurable plasma concentration (AUClast), area under the plasma concentration curve extrapolation percentage (AUC % ext), area under the plasma concentration curve extrapolation to infinity (AUCinf), area under the plasma concentration curve extrapolation to infinity versus dose (AUCinf/Dose), half-Life (t½), and mean residence time (MRT).

Setting [3] is: Wistar-Han, plasma, intravenous 1 mg/kg.

`COc1ccc2cccc(CCNC(C)=O)c2c1` [IA2-76, agomelatine, reference compound]: the Papp A→B at 60 min in series [1] (apical to basolateral, 60 min, read-out: Permeability A-B (pH 6.5/7.4)) was found to be 83.9 ×10⁻⁶ cm/s. The Papp B→A at 40 min in series [1] (basolateral to apical, 40 min, read-out: Permeability B-A (pH 6.5/7.4)) amounted to 48.5 ×10⁻⁶ cm/s. In series [2] (setting [3]), this compound showed a clearance of 39.1 mL/min/kg and a half-life of 17.7 min. In series [2] (Wistar-Han, plasma, oral 10 mg/kg), this compound showed an area under the curve AUC(0-t) of 1020 ng·h/mL. In addition, the bioavailability in series [2] (Wistar-Han, plasma, oral 10 mg/kg vs intravenous 1 mg/kg, read-out: F (%) bioavailability) was found to be 22.6%. Besides, in series [2] (intravenous 1 mg/kg), the CL came out at 39.1 mL/min/kg and the T1/2 came to 17.7 min. The compound further displayed an AUClast in series [2] (oral 10 mg/kg) of 1025 ng·h/mL. In series [2] (oral 10 mg/kg vs intravenous 1 mg/kg), the “F (%) bioavailability” value is 22.6%.
